The assay concerns CD2F1 mice, L1210 leukemia ip, survival T/C. The assay can be described thus: NCI In Vivo Anticancer Drug Screen. Data for tumor model L1210 Leukemia (intraperitoneal) in CD2F1 (CDF1) mice. The following applies: higher = longer survival. In outline:
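Vehicle-treated tumor-bearing mice served as controls (C) for compound-treated mice (T). Reported figure is T divided by C.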

The mark [1] stands for this setting: endpoint: mean survival time, dose: 50.0 mg/kg/injection, schedule: Q01DX009 (ip), vehicle: saline with Tween-80.
Where [2] appears, read: endpoint: mean survival time, dose: 100.0 mg/kg/injection, schedule: Q01DX009 (ip), vehicle: saline with Tween-80.
Setting [3] is: endpoint: mean survival time, dose: 200.0 mg/kg/injection, schedule: Q01DX009 (ip), vehicle: saline with Tween-80.
Setting [4] is: endpoint: mean survival time, dose: 100.0 mg/kg/injection, schedule: Q01DX001 (ip), vehicle: saline.
Where [5] appears, read: endpoint: mean survival time, dose: 12.5 mg/kg/injection, schedule: Q01DX009 (ip), vehicle: saline with Tween-80.
The mark [6] stands for this setting: endpoint: mean survival time, dose: 25.0 mg/kg/injection, schedule: Q01DX009 (ip), vehicle: saline with Tween-80.
Where [7] appears, read: endpoint: mean survival time, dose: 100.0 mg/kg/injection, schedule: Q04DX003 (ip), vehicle: saline with Tween-80.
Where [8] appears, read: endpoint: mean survival time, dose: 100.0 mg/kg/injection, schedule: Q01DX001 (ip), vehicle: saline with Tween-80.
The mark [9] stands for this setting: endpoint: mean survival time, dose: 200.0 mg/kg/injection, schedule: Q01DX001 (ip), vehicle: saline with Tween-80.
The mark [10] stands for this setting: endpoint: mean survival time, dose: 400.0 mg/kg/injection, schedule: Q01DX001 (ip), vehicle: saline with Tween-80.
Where [11] appears, read: endpoint: mean survival time, dose: 25.0 mg/kg/injection, schedule: Q04DX003 (ip), vehicle: saline with Tween-80.
[12] abbreviates: endpoint: mean survival time, dose: 50.0 mg/kg/injection, schedule: Q04DX003 (ip), vehicle: saline with Tween-80.

The structures appear in SMILES notation. “And” between values parts separate entries of the source, which are not always exact repeats. Equal values may be shown once. Inconclusive results and toxic doses are left out.

Consider `COc1cc2c(ccc3c4cc(OC)c(OC)cc4c[n+](C)c23)cc1O`, for which the T/C by setting is: (endpoint: mean survival time, dose: 80.0 mg/kg/injection, schedule: Q01DX009 (ip), vehicle: saline) 150 % of control; (endpoint: mean survival time, dose: 160.0 mg/kg/injection, schedule: Q01DX009 (ip), vehicle: saline with Tween-80) 150 % of control; (endpoint: mean survival time, dose: 160.0 mg/kg/injection, schedule: Q01DX009 (ip), vehicle: saline) 174 % of control; (endpoint: mean survival time, dose: 320.0 mg/kg/injection, schedule: Q01DX009 (ip), vehicle: saline with Tween-80) 87 % of control; (endpoint: mean survival time, dose: 320.0 mg/kg/injection, schedule: Q01DX009 (ip), vehicle: saline) 86 % of control.
With `COc1cc(OC)c(NC(=O)Nc2cccc(C(=O)O)c2)cc1Cl`, the T/C is 88 % of control under setting [1], 88 % of control under setting [2] and 92 % of control under setting [3].
Consider `N#CCCCSc1ccccc1`, for which the T/C was 96 % of control under setting [4] and 106 % of control (endpoint: mean survival time, dose: 200.0 mg/kg/injection, schedule: Q01DX001 (ip), vehicle: saline).
As to `CC(=O)Nc1ccc(OCCOC(=O)Nc2ccc(C)c([N+](=O)[O-])c2)cc1`, the T/C was 92 % of control under setting [5], 88 % of control under setting [6] and 92 % of control under setting [1].
For the molecule `O=C(Nc1ccccc1C(=O)O)c1cc([N+](=O)[O-])cc([N+](=O)[O-])c1`, the T/C under setting [5] is 95 % of control and 97 % of control; the T/C under setting [6] was 101 % of control and 103 % of control; the T/C under setting [1] was 100 % of control and 101 % of control; the T/C under setting [2] is 95 % of control and 97 % of control; the T/C under setting [3] is 96 % of control.
In the case of `COc1ccccc1CC(C)N` (centres undefined), the T/C is 90 % of control (endpoint: mean survival time, dose: 20.0 mg/kg/injection, schedule: Q04DX003 (ip), vehicle: Klucel (hydroxypropylcellulose) (HPC)); 91 % of control (endpoint: mean survival time, dose: 40.0 mg/kg/injection, schedule: Q04DX003 (ip), vehicle: Klucel (hydroxypropylcellulose) (HPC)); 96 % of control (endpoint: mean survival time, dose: 80.0 mg/kg/injection, schedule: Q04DX003 (ip), vehicle: Klucel (hydroxypropylcellulose) (HPC)).
As for `CCCCNC(=O)Oc1ccc(C(=O)OCC)cc1`, the T/C is, setting by setting: under setting [6], 100 % of control; under setting [1], 97 % of control; under setting [2], 97 % of control and 100 % of control; under setting [7], 96 % of control; (endpoint: mean survival time, dose: 200.0 mg/kg/injection, schedule: Q04DX003 (ip), vehicle: saline with Tween-80) 96 % of control; (endpoint: mean survival time, dose: 400.0 mg/kg/injection, schedule: Q04DX003 (ip), vehicle: saline with Tween-80) 90 % of control.
Take `Cc1ccc(NC(=O)Oc2ccc(C(C)(C)C)cc2Br)c(C)c1`: the T/C under setting [1] was 101 % of control, the T/C under setting [2] is 96 % of control and the T/C under setting [3] was 116 % of control.
Regarding `Cc1ccc(C(=O)C(F)F)cc1`, the T/C is 100 % of control (endpoint: mean survival time, dose: 50.0 mg/kg/injection, schedule: Q01DX001 (ip), vehicle: saline with Tween-80); 101 % of control under setting [8]; 101 % of control under setting [9].
Turning to `Cc1c(Cl)c(Cl)c(Cl)c(I)c1Cl`, the T/C is 96 % of control (endpoint: mean survival time, dose: 50.0 mg/kg/injection, schedule: Q04DX002 (ip), vehicle: saline with Tween-80); 97 % of control under setting [8]; 93 % of control (endpoint: mean survival time, dose: 100.0 mg/kg/injection, schedule: Q04DX002 (ip), vehicle: saline with Tween-80); 102 % of control under setting [9]; 93 % of control (endpoint: mean survival time, dose: 200.0 mg/kg/injection, schedule: Q04DX002 (ip), vehicle: saline with Tween-80); 97 % of control under setting [10].
For the molecule `OCC1OCOC(CO)C(O)C1O` (centres undefined), the T/C by setting is: (endpoint: mean survival time, dose: 100.0 mg/kg/injection, schedule: Q04DX002 (ip), vehicle: saline) 114 % of control; (endpoint: mean survival time, dose: 200.0 mg/kg/injection, schedule: Q04DX002 (ip), vehicle: saline) 111 % of control; (endpoint: mean survival time, dose: 400.0 mg/kg/injection, schedule: Q04DX002 (ip), vehicle: saline) 100 % of control.
`CN(C)c1ccc(N2C(N)=NC(N)=NC2(C)C)cc1`: the T/C was 101 % of control (endpoint: mean survival time, dose: 25.0 mg/kg/injection, schedule: Q01DX001 (ip), vehicle: saline); 101 % of control (endpoint: mean survival time, dose: 50.0 mg/kg/injection, schedule: Q01DX001 (ip), vehicle: saline); 98 % of control under setting [4].
On to `O=C1C=CC(=O)c2ccccc21`, for which the T/C runs as follows: (endpoint: mean survival time, dose: 1.0 mg/kg/injection, schedule: Q01DX009 (ip), vehicle: Klucel (hydroxypropylcellulose) (HPC)) 94 % of control; (endpoint: mean survival time, dose: 1.25 mg/kg/injection, schedule: Q04DX003 (ip), vehicle: saline with Tween-80) 104 % of control; (endpoint: mean survival time, dose: 2.0 mg/kg/injection, schedule: Q01DX009 (ip), vehicle: Klucel (hydroxypropylcellulose) (HPC)) 102 % of control; (endpoint: mean survival time, dose: 2.5 mg/kg/injection, schedule: Q04DX003 (ip), vehicle: saline with Tween-80) 95 % of control; (endpoint: mean survival time, dose: 4.0 mg/kg/injection, schedule: Q01DX009 (ip), vehicle: Klucel (hydroxypropylcellulose) (HPC)) 102 % of control.
Take `CCc1nc(N)nc(N)c1-c1ccc(Cl)c(N=[N+]=[N-])c1`: the T/C is, setting by setting: (endpoint: median survival time, dose: 12.5 mg/kg/injection, schedule: Q01DX009 (ip), vehicle: distilled water + Tween-80) 100 % of control; (endpoint: median survival time, dose: 25.0 mg/kg/injection, schedule: Q01DX009 (ip), vehicle: distilled water + Tween-80) 101 % of control and 102 % of control; (endpoint: median survival time, dose: 50.0 mg/kg/injection, schedule: Q01DX009 (ip), vehicle: distilled water + Tween-80) 102 % of control and 107 % of control; (endpoint: median survival time, dose: 100.0 mg/kg/injection, schedule: Q01DX009 (ip), vehicle: distilled water + Tween-80) 113 % of control (2×) and 96 % of control.
Regarding `Cc1ccoc1`, the T/C reads like this: (endpoint: median survival time, dose: 8.3 mg/kg/injection, schedule: Q03HX015 (ip), vehicle: saline with Tween-80) 101 % of control; (endpoint: median survival time, dose: 16.6 mg/kg/injection, schedule: Q03HX015 (ip), vehicle: saline with Tween-80) 103 % of control; (endpoint: median survival time, dose: 33.3 mg/kg/injection, schedule: Q03HX015 (ip), vehicle: saline with Tween-80) 117 % of control; (endpoint: median survival time, dose: 66.6 mg/kg/injection, schedule: Q03HX015 (ip), vehicle: saline with Tween-80) 124 % of control.
As for `Cc1cc2ccc(Br)cc2[nH]1`, the T/C (endpoint: mean survival time, dose: 100.0 mg/kg/injection, schedule: Q01DX001 (ip), vehicle: other) was 104 % of control; the T/C (endpoint: mean survival time, dose: 200.0 mg/kg/injection, schedule: Q01DX001 (ip), vehicle: other) was 101 % of control; the T/C (endpoint: mean survival time, dose: 400.0 mg/kg/injection, schedule: Q01DX001 (ip), vehicle: other) is 98 % of control.
As to `O=C(COc1ccc(Cl)c(Cl)c1)Nc1ccc[n+](Cc2ccccc2)c1`, the T/C runs as follows: (endpoint: mean survival time, dose: 12.5 mg/kg/injection, schedule: Q04DX003 (ip), vehicle: saline with Tween-80) 104 % of control; under setting [11], 98 % of control; under setting [12], 89 % of control.
In the case of `NC(=O)C1CC1c1ccccc1` (centres undefined), the T/C runs as follows: under setting [8], 100 % of control; under setting [9], 102 % of control; under setting [10], 96 % of control.
`NC1CCCCC1CC1CCCCC1` (centres undefined): the T/C reads like this: under setting [6], 106 % of control; under setting [11], 97 % of control; under setting [1], 103 % of control; under setting [12], 97 % of control; under setting [2], 95 % of control; under setting [7], 98 % of control.
Take `O=C(/C=C/c1ccccc1)N1CCOCC1`: the T/C (endpoint: mean survival time, dose: 50.0 mg/kg/injection, schedule: Q04DX003 (ip), vehicle: saline) was 102 % of control; the T/C (endpoint: mean survival time, dose: 100.0 mg/kg/injection, schedule: Q04DX003 (ip), vehicle: saline) is 96 % of control; the T/C (endpoint: mean survival time, dose: 200.0 mg/kg/injection, schedule: Q04DX003 (ip), vehicle: saline) is 100 % of control.
`CCC1(O)C(=O)OCc2c1cc1n(c2=O)Cc2cc3cc(O)c(O)cc3nc2-1` (centres undefined): the T/C (endpoint: median survival time, dose: 10.0 mg/kg/injection, schedule: Q04DX002 (ip), vehicle: saline with Tween-80) is 153 % of control; the T/C (endpoint: median survival time, dose: 40.0 mg/kg/injection, schedule: Q04DX002 (ip), vehicle: saline with Tween-80) was 157 % of control; the T/C (endpoint: median survival time, dose: 80.0 mg/kg/injection, schedule: Q04DX002 (ip), vehicle: saline with Tween-80) is 173 % of control.

The values are drawn from PubChem BioAssay AID256 (DTP/NCI, 2004).
